Experimental data published in article PMC9961069 (Metabolites, 2023).

Tests used:
[1] = test system: leukemia; parameters: method as in PMID 5479856, PMID 5479852, PMID 5241406; details: early studies in the 1970s; cited from earlier work
[2] = test system: MDA-MB-231 cells; assay: Resazurin viability assay with or without folinic acid, MDA-MB-231; format: cell-based, Human; details: 72 h; for Relative Viability (%) – Inhibitor + FA Treatment: MDA-MB-231, 10 μM + 300 μg/mL folinic acid; for Rescue of viability impairment by folinic acid: MDA-MB-231, 10 μM ± 300 μg/mL FA; for Relative Viability (%) – Inhibitor Alone: MDA-MB-231, 10 μM, relative to DMSO
Protocol: (§1) The incorporation and metabolism of resazurin to resorufin was used to monitor cell viability. MDA-MB-468, MCF7, and MDA-MB-231 cells were grown in 96-well plates with a total of 5000 cells per well in a total volume of 180 μL for 24 h, as described above. After 24 h of growth, cells were treated with increasing concentrations of compounds (0.0457–100 μM) for 72 h. A vehicle control was also performed. […] The volume of treatment added to each well was 20 μL. For folinic acid rescue experiments, 5000 cells were treated with 10 μM compound with or without 300 μg/mL folinic acid (Supelco). After 72 h of treatment, resazurin was added to a final concentration of 44 μM, and cells were incubated for an additional 4 h at 37 °C. The fluorescence of resorufin was monitored on a Synergy MX microplate reader (BioTek) using an excitation wavelength of 540 nm and an emission wavelength of 600 nm. Percent viability relative to the DMSO control was determined. Each treatment was performed in triplicate, and each individual experiment was repeated three times (n = 3).

[3] = test system: T1, DHFR in MDA-MB-468 lysates; assay: Lysate cellular thermal shift assay (CETSA) for DHFR; format: binding, Human; details: 10 μM, MDA-MB-468 lysate, 45 °C for 3 min, DMSO at 37 °C = 100%
T1 construct: reactions containing 55 μg MDA-MB-468 lysate; endogenous in cells; host or cells: MDA-MB-468
Protocol: Trypsinized MDA-MB-468 cells were harvested by centrifugation at 200× g for 5 min and washed with PBS supplemented with EDTA-free PIC (Roche) and flash frozen for storage at −80 °C. Cells were lysed by resuspension in 60 μL PBS/PIC per 1 × 10^6 cells. Cells were lysed by three freeze-thaw cycles, where cells were frozen in an ethanol/dry ice bath for 3 min, immediately followed by incubation in a 37 °C water bath for 3 min. The insoluble fraction was removed by centrifugation at 20,000× g for 20 min at 4 °C. The supernatant containing the soluble lysate was removed and saved for subsequent steps.
After incubation, each reaction was transferred to a 1.5 mL tube and centrifuged at 20,000× g for 20 min at 4 °C to remove the insoluble proteins. After centrifugation, 18 μL of supernatant was carefully removed from each reaction, without disturbing any pelleted aggregates, and added to 4.5 μL of 5× SDS-PAGE loading buffer. 11 μL of each reaction was loaded onto a gel in duplicate, and proteins were detected by Western blot (as described below). Resulting band densities were fit to the Boltzmann equation to determine the melting temperature (Tm):(3) y=Bottom+Top−Bottom/1+e^Tm−x/Slope
To rescue the thermal degradation of DHFR by inhibitors, samples containing 10 μM inhibitor, 55 μg lysate, and 1% DMSO in a total volume of 28 μL in DHFR buffer were prepared in PCR tubes and incubated at room temperature for 20 min. Two DMSO-only controls were also prepared. Reactions containing inhibitors were then incubated at 45 °C for 3 min. One DMSO-only control was also heated at 45 °C for 3 min, and the other control was heated at 37 °C for 3 min. The soluble protein fraction was separated from the insoluble proteins by centrifugation, and proteins were separated by SDS-PAGE, as described above, and analyzed via Western blot, as described below. Each experiment was repeated 3 times.
(§2) Proteins were electrophoretically separated on a 10% gel, and proteins were transferred to a methanol-activated PVDF membrane using the Trans-Blot Turbo transfer system (Bio-Rad) for 7 min at 1.3 A and 25 V in Trans-Blot Turbo transfer buffer (Bio-Rad). Membranes were blocked with 5% skim milk w/v in TBS-T (20 mM Tris, 150 mM NaCl, 0.05% Tween-20) for 1 h at room temperature. […] The horseradish peroxidase (HRP)-linked anti-mouse IgG secondary antibody (NA931, Cytiva; 1:3000) was added for 1 h at room temperature in 5% skim milk w/v in TBS-T. Signal was detected by adding Immobilon Forte Western HRP Substrate (Millipore), and chemiluminescence was captured on a Sapphire Biomolecular Imager (Azure Biosystems). Band densities were determined using ImageJ (Fiji). The band intensity of DHFR was normalized to the thermostable loading control SOD1 [22].

[4] = test system: MDA-MB468, MDA-MB-231, and MCF-7 breast cancer cell lines; assay: Dose-response viability in breast cancer cell lines (statements not split by line); format: cell-based, Human; details: 0–100 μM, 72 h
Protocol: as §1

[5] = biological target: T2, purified human DHFR (Homo sapiens, UniProt P00374); assay: DHFR enzymatic inhibition assay (NADPH absorbance at 340 nm); format: biochemical; details: 200 nM DHFR, 137.5 μM DHF, 125 μM NADPH; n = 2; read-out: IC50
T2 construct: made in house; host or cells: E. coli BL21 (DE3) T1R pRARE2, pNIC-Bsa4 plasmid
T2 sequence (P00374 1-187): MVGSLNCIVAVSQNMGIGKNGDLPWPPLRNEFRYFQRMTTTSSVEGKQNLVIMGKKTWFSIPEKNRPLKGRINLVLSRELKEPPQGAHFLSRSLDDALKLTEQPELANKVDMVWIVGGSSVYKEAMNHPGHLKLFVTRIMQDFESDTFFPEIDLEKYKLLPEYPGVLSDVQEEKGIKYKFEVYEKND
Protocol: Working stocks of each inhibitor were created so that the final concentration of DMSO in each reaction was 2% in a final reaction volume of 100 μL. […] Reactions were prepared on ice in 384-well plates. […] Consumption of NADPH by measuring absorbance at 340 nm was used to monitor the progress of the reaction. Readings were taken every 5 min for 1 h at 37 °C using a Synergy MX microplate reader (BioTek).
Percent inhibition relative to the no-inhibitor control was determined using Equation (1). (1) % Inhibition=A340Inhibitor−A340DMSO Control/A340No DHFR−A340DMSO Control×100
Percent inhibition data were then fit to the four-parameter logistic model (Equation (2)) in GraphPad Prism 9.4.1 to determine half-maximal inhibitory concentrations (IC50):(2) y=Bottom+Top−Bottom/1+IC50/x^Hill slope where y represents the percent inhibition, x represents the concentration of inhibitor (μM), the bottom and top represent the bottom and top plateaus, and the Hill slope represents the slope factor. Each experiment contained duplicates of each sample, and each experiment was performed 2 times (n = 2). An ordinary one-way ANOVA was used to test for statistical significance between treatments.

[6] = test system: MDA-MB-468 cells; assay: Resazurin viability assay with or without folinic acid, MDA-MB-468; format: cell-based, Human; details: 72 h; for Relative Viability (%) – Inhibitor + FA Treatment: MDA-MB-468, 10 μM + 300 μg/mL folinic acid; for Rescue of viability impairment by folinic acid: MDA-MB-468, 10 μM ± 300 μg/mL FA; for Relative Viability (%) – Inhibitor Alone: MDA-MB-468, 10 μM, relative to DMSO
Protocol: as §1

[7] = test system: MCF-7 cells; assay: Resazurin viability assay with or without folinic acid, MCF-7; format: cell-based, Human; details: 72 h; for Relative Viability (%) – Inhibitor + FA Treatment: MCF-7, 10 μM + 300 μg/mL folinic acid; for Relative Viability (%) – Inhibitor Alone: MCF-7, 10 μM, relative to DMSO; for Rescue of viability impairment by folinic acid: MCF-7, 10 μM ± 300 μg/mL FA
Protocol: as §1

[8] = test system: T3, DHFR in MDA-MB-468 cells; assay: DHFR accumulation assay (Western blot); format: cell-based, Human; details: MDA-MB-468, 24 h, range 0.012–1 nM
T3 construct: reactions containing 55 μg MDA-MB-468 lysate; endogenous in cells; host or cells: MDA-MB-468
Protocol: Trypsinized MDA-MB-468 cells were seeded into 6-well plates at a density of 300,000 cells per 2 mL of media and allowed to adhere for 24 h. […] The final concentration of DMSO in each well was 1%. A DMSO-only control was also performed on each individual plate. Cells were then trypsinized, harvested by centrifugation at 200× g for 5 min at 4 °C, and washed once with PBS/PIC. Cell pellets were flash frozen using an ethanol/dry ice bath and stored at −80 °C prior to lysis. Each cell pellet was lysed as described above using 50 μL PBS/PIC per cell pellet. Samples were then analyzed by Western blot, as described below, using 30 μg lysate per lane. Band intensities of DHFR were normalized to the loading control SOD1 via densitometry using ImageJ (Fiji), and each DHFR band was normalized to the DMSO control. Fold-change in DHFR band intensity was plotted against inhibitor concentration (μM). Each experiment was performed two separate times as individual biological replicates (n = 2).
as §2

SMILES | Anti-leukemic activity in vivo [1] | Relative Viability (%) – Inhibitor + FA Treatment [2] [%] | Rescue of viability impairment by folinic acid [2] | Relative Viability (%) – Inhibitor Alone [2] [%] | Normalized Band Density (%) of soluble DHFR [3] | Normalized Band Density (%) of soluble DHFR ([3]; listed as NSC123032) [%] | Phenotypic response in viability dose-response [4] | IC50 [5] [nM] | Relative Viability (%) – Inhibitor + FA Treatment [6] [%] | Rescue of viability impairment by folinic acid [6] | Relative Viability (%) – Inhibitor Alone [6] [%] | Relative Viability (%) – Inhibitor + FA Treatment [7] [%] | Relative Viability (%) – Inhibitor Alone [7] [%] | Normalized Band Density (%) of soluble DHFR ([3]; listed as NSC127153) [%] | Concentration giving notable accumulation of DHFR [8] [nM] | Rescue of viability impairment by folinic acid [7]
CC1(C)N=C(N)N=C(N)N1c1ccc(CCCCc2ccc(S(=O)(=O)F)cc2)cc1 [compound 123032] | promising anti-leukemic activity in vivo | 103.45 ± 16.5 | largest amplitude of rescue | 57.55 ± 3.1 | greater than 100% | 121.24 ± 45.6 | little effect at low concentrations and cytotoxicity at higher concentrations | 1170 ± 460 | 66.59 ± 2.1 | rescued in all but MDA-MB-468 cells | 71.41 ± 10.0 | 104.16 ± 6.3 | 81.94 ± 19.4 |  |  | 
CC1(C)N=C(N)N=C(N)N1c1ccc(CCCCc2ccccc2)cc1 [compound 127153] | promising anti-leukemic activity in vivo | 55.71 ± 12.7 | failed to rescue | 45.99 ± 10.6 | greater than 100% |  | induce growth arrest at low concentrations and induce cell death at higher concentrations | 930 ± 240 | 23.92 ± 7.7 | failed to rescue | 17.90 ± 7.8 | 56.75 ± 7.9 | 43.03 ± 13.9 | 100.16 ± 36.4 | 0.33 | failed to rescue
CC1(C)N=C(N)N=C(N)N1c1ccc(CCCCc2ccccc2)c(Cl)c1 [compound 128184] | promising anti-leukemic activity in vivo | 53.14 ± 12.7 | failed to rescue | 42.94 ± 9.7 |  |  | induce growth arrest at low concentrations and induce cell death at higher concentrations | 720 ± 240 | 16.09 ± 10.4 | failed to rescue | 12.35 ± 8.6 | 48.65 ± 6.9 | 35.94 ± 11.4 |  | 0.33 | failed to rescue
